One assay deals with HPK1 (Homo sapiens (Human), UniProt Q92918). The assay can be described thus: HPK1 biochemical assay (ADP-GLO Kinase Assay). The settings on record: ADP-GLO, 10 µM ATP, MBP substrate; read-out: HPK1 IC50. The text has this:
This example used the ADP-GLO™ Kinase Assay to measure the effect of potential HPK1 inhibitor compounds on HPK1 kinase activity.
The ADP-GLO™ Kinase Assay (Promega Corp., Madison, WI) measures ADP formed from a kinase reaction. According to the manufacture, the ADP formed in a kinase assay is first converted into ATP, which is then used to generate light in a luciferase reaction. The luminescence generated correlates with kinase activity. An exemplary experimental setting is described below, though minor adjustments can be made in individual assays.
Serial 3-fold dilution of compoounds from 10 µM (top concentration) to 0.508 nM (lowest concentration). Positive control is 10 µM Reference + enzyme + substrate. Negative control is 1% DMSO + enzyme + substrate.
40 mM Tris pH7.5; 20 mM MgC12, 0.1 mg/ml BSA, 50 µM DTT Buffer stock
• 1) The compounds were diluted to 1 mM, by mixing 10 µL of 10 mM respective compound stocks with 90 µL of DMSO. • 2) The compounds were then diluted 3-fold for 10 doses (5 µL to 10 µL dilution) by BRAVO. The top compound conc. was 1 mM (100×), DMSO Conc. was 100%. • 3) Transfer 100 nL of each diluted compound sample to 384-well plate (Corning-4512) by ECHO. • 4) Centrifuge the plate at 1,500 rpm for 1 minute.
20 µM ATP, 0.2 µg/µL MBP in Kinase Buffer (final concentration: 10 µM ATP, 0.1 µg/µL MBP)
• 5. Preparation of 2× HPK1 working solution with assay buffer. HPK1 final concentration was 0.6 ng/µL. […] Add 5 µL/well of 2× HPK1 working solution, Centrifuge at 1,500 rpm for 1 minute. • 7. Add 5 µL/well of 2× ATP-Substrate, Centrifuge at 1,500 rpm for 1 minute. • 8. Incubate at 25° C. for 1 hour (or 6 hours for compounds with high potency). • 9. Add 5 µL/well ADP-GLO™ Reagent to stop the kinase reaction and deplete the unconsumed ATP. Centrifuge at 1,500 rpm for 1 minute. Incubate at 25° C. for 40 min. • 10. Add 10 µL of Kinase Detection Reagent to convert ADP to ATP. Centrifuge at 1,500 rpm for 1 minute. Incubate at 25° C. for 40 min. • 11. Record luminescence signal on an Envision plate reader (384-CTG).
The percent (%) inhibition at each concentration of compound is calculated based on and relative to the signal in the High and Low control wells contained within each assay plate. […] The concentrations and % inhibition values for tested compounds were plotted and the concentration of compound required for 50% inhibition (IC50) was determined with a Three-parameter logistic dose response equation. The endpoint value (IC50) for the reference peptide/compound was evaluated in each experiment as a quality control measure. If the endpoint value was within 3-fold of the expected value, then the experiment was deemed acceptable.

For the next assay, the system named is Human Pan T cells. In words: IL2 & IFN-γ released by human pan T cell (ELISA). Format: cell-based. As to conditions: for EC50 / Human Pan T cells EC2x (nM, IL-2): IL-2, anti-CD3/CD28 stimulation, 48 hours; for Human Pan T cells EC2x (nM, IL-2): concentration giving 200% response (2 folds) over DMSO control; for Max fold change: IL-2 response over DMSO control, human pan T cells. The source says: This example is an assay method that can be used to determine compound effects on IL2 & IFN-γ release using pan T cells and ELISA assay format.
Procedures for Pan T isolation and Reagent preparation (Day 0): • 1. Cell Growth Medium: • RPMI1640: ATCC, Cat# 30-2001 • 10% FBS: Gibco, Cat# 10099141 • 1% Pen-Strep: Gibco, Cat # 15140122 • 1% Non-essential amino: Gibco, Cat #11140050 • Beta- Mercaptoethanol: Gibco, Cat#21985023 • 2. Pan T isolation buffer preparation: • Prepare a solution containing phosphate-buffered saline (PBS), pH 7.2, 0.5% bovine serum albumin (BSA), and 2 mM EDTA by diluting MACS® BSA Stock Solution (# 130-091-376) 20 times with autoMACS® Rinsing Solution. Keep buffer at 4° C. Degas buffer before use, as air bubbles could block the column.
• 3. Thawing of frozen PBMC • 1) Pre-heat medium at 37° C. water bath. • 2) Rapidly thaw cells in 37° C. water bath. • 3) Add the pre-warmed medium into 15 mL tube. Transfer cells to the tube. • 4) 300 × g centrifuge for 8 min. (centrifuge increase 0, decrease 0). • 5) Wash the PBMC using Rinsing buffer. • 6) Centrifuge PBMC at 300 × g for 8 min, wash it twice (centrifuge increase 9, decrease 1). • 7) Resuspend the cells with Pan T cells isolation buffer and count cells number. • 4. Pan T cells isolation: • Cell staining with microbead cocktail • 1) Prepare cells and determine cell number. Filter cells by 70 µm cell strainer. • 2) Resuspend cell pellet in 40 µL of buffer per 10^7 total cells. • 3) Add 10 µL of Pan T Cell Biotin-Antibody Cocktail per 10^7 total cells. • 4) Mix well and incubate for 10 minutes in the refrigerator (ice). • 5) Add 30 µL of buffer per 10^7 total cells. • 6) Add 20 µL of Pan T Cell MicroBead Cocktail per 10^7 total cells. • 7) Mix well and incubate for 15 minutes in the refrigerator (ice). • 8) Proceed to subsequent magnetic cell separation.
Subsequent manual cell separation: • 1) Place LS Column in the magnetic field of a suitable MACS Separator. For details refer to the respective MACS Column data sheet. • 2) Prepare column by rinsing with 3 mL of buffer. • 3) Apply cell suspension onto the column. Collect flow-through, which represents the enriched T cells. • 4) Wash column with 5 mL of buffer. Collect unlabeled cells that pass through, representing the enriched T cells.
Reminder: Always wait until the column reservoir is empty before proceeding to the next step. • 5. Pan T cell FACS: • 1) Take out 50 µL of PBMC and Pan T cells to FACS tubes respectively. • 2) Incubate cells with anti-human CD3/CD4/CD8 antibodies (1 µL/1 µL/1 µL /tube) for 20 min at 4° C. For unstained control, incubate cells with FACS staining buffer. • 3) Wash 2 times with cold staining buffer (PBS with 0.2%BSA and 1 mM EDTA). • 4) Run FACS. Gate CD3^+, CD3^+CD4^+, and CD3^+CD8^+ population for % analysis. • 5) If the purity of Pan T cells is higher than 90%, dilute cell suspension to 1 million cells/mL with the appropriate volume of Cell Culture Media. • 6) Dispense the cell suspension into a sterile, disposable reservoir for future use.
Procedures for preparation of compounds and anti-human CD3/CD28 (Day 0): • 1. Compound preparation • Compound serial dilution (source plate 1000×) • Compounds are solubilized in 100% DMSO to a concentration of 10 mM. Then they were 3-fold serially diluted to 8-point doses. • 4× Compound dose preparation (inter plate: Corning-3599): • Prepare 4× compound solution in culture medium. Pipet up and down. For the ZPE control, prepare 0.4% DMSO (4×) in culture medium. For the HPE control, prepare 0.4 µM of RGT003-026 (4×) in culture medium. • 2. Anti-human CD3 (stock conc. 6.76 mg/ml): stored at 4° C. • 1) Dilute anti-human CD3 with PBS to final conc. of 0.5 µg/mL. • 2) Add 50 µL /well of CD3 to each well, except for the positive and negative control wells. […] Rinse each well twice with 200 µL of sterile PBS each time. • 3. […]

Where only a bound is given, the exact number is not on record here.

HPK1, sequence (Q92918 whole entry): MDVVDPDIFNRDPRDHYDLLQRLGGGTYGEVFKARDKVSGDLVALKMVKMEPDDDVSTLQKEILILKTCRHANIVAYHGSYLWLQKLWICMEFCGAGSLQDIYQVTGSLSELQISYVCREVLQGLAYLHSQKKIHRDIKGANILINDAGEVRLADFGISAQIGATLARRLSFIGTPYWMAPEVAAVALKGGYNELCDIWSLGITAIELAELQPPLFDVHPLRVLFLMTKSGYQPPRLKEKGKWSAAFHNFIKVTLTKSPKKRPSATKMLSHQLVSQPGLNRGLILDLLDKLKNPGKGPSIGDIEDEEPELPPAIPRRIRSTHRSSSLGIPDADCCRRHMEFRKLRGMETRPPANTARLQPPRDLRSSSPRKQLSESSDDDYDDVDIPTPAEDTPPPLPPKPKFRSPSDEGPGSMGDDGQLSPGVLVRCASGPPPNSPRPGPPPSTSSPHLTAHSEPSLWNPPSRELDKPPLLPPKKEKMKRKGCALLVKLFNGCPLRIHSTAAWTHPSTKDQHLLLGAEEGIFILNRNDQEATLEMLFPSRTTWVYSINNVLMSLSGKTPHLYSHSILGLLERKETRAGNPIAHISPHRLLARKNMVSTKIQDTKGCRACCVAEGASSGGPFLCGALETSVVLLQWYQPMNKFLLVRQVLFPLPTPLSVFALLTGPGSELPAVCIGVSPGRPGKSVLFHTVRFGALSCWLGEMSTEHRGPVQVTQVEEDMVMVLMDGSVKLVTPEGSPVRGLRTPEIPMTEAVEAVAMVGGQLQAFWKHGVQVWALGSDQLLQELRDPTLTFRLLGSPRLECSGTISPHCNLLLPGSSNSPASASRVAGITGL

Take `COc1cc2c(cc1Nc1ncc(Cl)c(N3CC(C)(CC(=O)O)c4cc(F)ccc43)n1)CN(C)CC2` (centres unmarked) [Compound 9, reference compound]: on HPK1, the IC50 was 1.1 nM. The EC50 in the assay on Human Pan T cells (Homo sapiens, T-cell) was found to be 68 nM. In the assay with Human Pan T cells, the “Human Pan T cells EC2x (nM, IL-2)” value is given as 62 (N = 2) nM and the Max fold change is 3.24 (N = 2).
As to `COc1cc2c(cc1Nc1ncc(Cl)c(N3C[C@@](C)(CC(=O)O)c4ccccc43)n1)CN(C)CC2` (single isomer, unassigned) [Example 3, (S)-2-(1-(5-chloro-2-((6-methoxy-2-methyl-1,2,3,4-tetrahydroisoquinolin-7-yl)amino)pyrimidin-4-yl)-3-methylindolin-3-yl)acetic acid or (R)-2-(1-(5-chloro-2-((6-methoxy-2-methyl-1,2,3,4-tetrahydroisoquinolin-7-yl)amino)pyrimidin-4-yl)-3-methylindolin-3-yl)acetic acid], the IC50 at HPK1 was found to be 24 nM. Besides, in the assay on Human Pan T cells, the EC50 is 911 nM; the “Human Pan T cells EC2x (nM, IL-2)” value is on record as > 5760 (N = 2) nM; the Max fold change is given as 1.96 (N = 2).
